Experimental data reported in patent US20080275029A1, “Compounds for Treating Protein-Kinase Mediated Disorders” (ASTEX THERAPEUTICS LIMITED, priority 2004, published 2008).
Counter-ions that a name gives are not always drawn. Like-named read-outs stand apart in the source and are kept apart here.

Biological target: T1, protein kinase B (PKB), fusion protein PKB-PIF (Homo sapiens, UniProt P31751)
T1 construct: made in house
Test: Measurement of PKB kinase inhibitory activity (IC50)
Format: biochemical
Procedure: The inhibition of protein kinase B (PKB) activity by compounds can be determined essentially as described by Andjelkovic et al. (Mol. Cell. Biol. 19, 5061-5072 (1999)) but using a fusion protein described as PKB-PIF and described in full by Yang et al (Nature Structural Biology 9, 940-944 (2002)). […] A final concentration of 0.6 nM enzyme is used in a buffer that includes 20 mM MOPS pH 7.2, 30 μM ATP/γ^33P-ATP and 25 μM substrate. Compounds are added in DMSO solution to a final DMSO concentration of 2.5%. The reaction is allowed to proceed for 20 minutes before addition of excess orthophosphoric acid to quench activity. The reaction mixture is transferred to a phosphocellulose filter plate where the peptide binds and the unused ATP is washed away. After washing, scintillant is added and the incorporated activity measured by scintillation counting.
The % inhibition of the PKB activity is calculated and plotted in order to determine the concentration of test compound required to inhibit 50% of the PKB activity (IC50).

[1] = PKB-PIF activated with PDK1, 30 μM ATP, AKTide-2T substrate, 20 minutes, read-out: IC50 (concentration required to inhibit 50% of the PKB activity)

T1 sequence (P31751 with tags, fused parts or gaps limits assumed): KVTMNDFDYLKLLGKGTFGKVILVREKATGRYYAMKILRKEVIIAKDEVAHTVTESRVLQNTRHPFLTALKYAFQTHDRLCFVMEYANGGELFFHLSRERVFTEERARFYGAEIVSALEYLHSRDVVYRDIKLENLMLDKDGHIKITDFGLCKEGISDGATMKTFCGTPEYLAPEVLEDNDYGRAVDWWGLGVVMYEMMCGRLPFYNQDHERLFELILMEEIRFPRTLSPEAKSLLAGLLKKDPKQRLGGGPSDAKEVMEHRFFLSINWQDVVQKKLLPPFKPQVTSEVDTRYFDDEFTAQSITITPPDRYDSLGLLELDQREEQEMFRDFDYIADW

SMILES | IC50 [1] | IC50
NCCC(C(=O)Nc1ccc2c(=O)[nH]cnc2c1)c1ccc(Cl)c(Cl)c1 (stereo not shown) [Example 1, 4-Amino-2-(3,4-dichloro-phenyl)-N-(4-oxo-3,4-dihydro-quinazolin-7-yl)-butyramide] | < 10 µM | –
CNCCC(C(=O)Nc1ccc2c(=O)[nH]cnc2c1)c1ccc(Cl)cc1 (stereo not shown) [Example 2, 2-(4-Chloro-phenyl)-4-methylamino-N-(4-oxo-3,4-dihydro-quinazolin-7-yl)-butyramide] | < 10 µM | –
NCCC(NC(=O)c1ccc2c(=O)[nH]cnc2c1)c1ccc(Cl)cc1 (stereo not shown) [Example 3, 4-Oxo-3,4-dihydro-quinazoline-7-carboxylic acid[3-amino-1-(4-chloro-phenyl-propyl]-amide hydrochloride] | < 10 µM | –
O=C(Nc1ccc2c(=O)[nH]cnc2c1)C1(c2ccccc2)CCNCC1 [Example 4, 4-Phenyl-piperidine-4-carboxylic acid (4-oxo-3,4-dihydro-quinazolin-7-yl)-amide] | < 10 µM | –
O=C(NCc1ccc(Cl)cc1)Nc1ccc2c(=O)[nH]cnc2c1 [Example 5, 1-(4-Chloro-benzyl)-3-(4-oxo-3,4-dihydro-quinazolin-7-yl)-urea] | < 10 µM | –
O=C(NCc1ccc(F)cc1)Nc1ccc2c(=O)[nH]cnc2c1 [Example 6, 1-(4-Fluoro-benzyl)-3-(4-oxo-3,4-dihydro-quinazolin-7-yl)-urea] | < 10 µM | –
O=c1[nH]cnc2cc(OCC3(c4ccccc4)CCNCC3)ccc12 [Example 7, 7-(4-Phenyl-piperidin-4-ylmethoxy)-3H-quinazolin-4-one] | < 10 µM | –
O=C(NCc1ccccc1)Nc1ccc2c(=O)[nH]cnc2c1 [Example 8, 1-Benzyl-3-(4-oxo-3,4-dihydro-quinazolin-7-yl)-urea] | < 10 µM | –
O=c1[nH]cnc2cc(N3CCNCC3)ccc12 [Example 18, 7-piperazin-1-yl-3H-quinazolin-4-one] | – | < 10 µM
O=c1[nH]cnc2cc(N3CCNC(c4ccccc4)C3)ccc12 (stereo not shown) [Example 25] | < 50 µM | –
NCC1(c2ccc(Cl)cc2)CCN(c2ccc3c(=O)[nH]cnc3c2)CC1 [Example 27, 7-[4-Aminomethyl-4-(4-chloro-phenyl)-piperidin-1-yl]-3H-quinazolin-4-one] | < 10 µM | –
NCC[C@H](C(=O)Nc1ccc2c(=O)[nH]cnc2c1)c1ccc(Cl)c(Cl)c1 [Example 28] | < 10 µM | –
NCC[C@@H](C(=O)Nc1ccc2c(=O)[nH]cnc2c1)c1ccc(Cl)c(Cl)c1 [Example 29, (R)-4-Amino-2-(3,4-dichloro-phenyl)-N-(4-oxo-3,4-dihydro-quinazolin-7-yl)butyramide] | < 10 µM | –
O=C(Nc1ccc2c(=O)[nH]cnc2c1)C1(c2ccc(Cl)cc2)CCNCC1 [Example 30, 4-(4-Chloro-phenyl)-piperidine-4-carboxylic acid (4-oxo-3,4-dihydro-quinazolin-7-yl)-amide] | < 10 µM | –
O=c1[nH]cnc2cc(NCC3(c4ccc(Cl)cc4)CCNCC3)ccc12 [Example 32, 7-{[4-(4-Chloro-phenyl)-piperidin-4-ylmethyl]-amino}-3H-quinazolin-4-one] | < 10 µM | –
O=c1[nH]cnc2cc(OCC3(c4ccc(Cl)cc4)CCNCC3)ccc12 [Example 33, 7-[4-(4-Chloro-phenyl)-piperidin-4-ylmethoxy]-3H-quinazolin-4-one] | < 10 µM | –
O=c1[nH]cnc2cc(N3CCC(CO)(c4ccc(Cl)cc4)CC3)ccc12 [Example 34, 7-[4-(4-Chloro-phenyl)-4-hydroxymethyl-piperidin-1-yl]-3H-quinazolin-4-one] | < 10 µM | –
Cc1nc2cc(N3CCC(CN)(c4ccc(Cl)cc4)CC3)ccc2c(=O)[nH]1 [Example 35, 7-[4-Aminomethyl-4-(4-chloro-phenyl)-piperidin-1-yl]-2-methyl-3H-quinazolin-4-one] | < 10 µM | –
Cn1c(=O)[nH]c(=O)c2ccc(OCC3(c4ccc(Cl)cc4)CCNCC3)cc21 [Example 37, 7-[4-(4-Chloro-phenyl)-piperidin-4-ylmethoxy]-1-methyl-1H-quinazoline-2,4-dione] | < 10 µM | –
NC1(Cc2ccc(Cl)cc2)CCN(c2ccc3c(=O)[nH]cnc3c2)CC1 [Example 38, 7-[4-Amino-4-(4-chloro-benzyl)-piperidin-1-yl]-3H-quinazolin-4-one] | < 10 µM | –
O=c1[nH]cnc2cc(/C=C/C3(c4ccc(Cl)cc4)CCNCC3)ccc12 [Example 39, 7-{2-[4-(4-Chloro-phenyl)-piperidin-4-yl]-vinyl}-3H-quinazolin-4-one dihydrochloride] | < 10 µM | –
NC1(c2ccc(Cl)cc2)CCN(c2ccc3c(=O)[nH]cnc3c2)CC1 [Example 40, 7-[4-Amino-4-(4-chloro-phenyl)-piperidin-1-yl]-3H-quinazolin-4-one] | < 10 µM | –
NCC1(Cc2ccc(Cl)cc2)CCN(c2ccc3c(=O)[nH]cnc3c2)CC1 [Example 41, 7-[4-Aminomethyl-4-(4-chloro-benzyl)-piperidin-1-yl]-3H-quinazolin-4-one] | < 10 µM | –
Cn1c(=O)[nH]c(=O)c2ccc(N3CCC(CN)(Cc4ccc(Cl)cc4)CC3)cc21 [Example 42, 7-[4-Aminomethyl-4-(4-chloro-benzyl)-piperidin-1-yl]-1-methyl-1H-quinazoline-2,4-dione] | < 10 µM | –

The remaining lines, values ahead:

IC50 [1] | IC50 | SMILES
– | < 10 µM | NCCCOc1ccc2c(=O)[nH]cnc2c1 [Example 9, 7-(3-Amino-propoxy)-3H-quinazolin-4-one]
< 10 µM | – | NCCCc1ccc2c(=O)[nH]cnc2c1 [Example 14, 7-(3-Amino-propyl)-3H-quinazolin-4-one]
< 10 µM | – | N[C@H]1CC[C@H](Nc2ccc3c(=O)[nH]cnc3c2)CC1 [Example 15, 7-(trans-4-Amino-cyclohexylamino)-3H-quinazolin-4-one]
– | < 10 µM | O=c1[nH]cnc2cc(NC3CCNC3)ccc12 (stereo not shown) [Example 16, 7-(Pyrrolidin-3-ylamino)-3H-quinazolin-4-one]
< 10 µM | – | NC1CCN(c2ccc3c(=O)[nH]cnc3c2)CC1 [Example 17, 7-(4-Amino-piperidin-1-yl)-3H-quinazolin-4-one]
< 10 µM | – | O=c1[nH]cnc2cc(N3CCCNCC3)ccc12 [Example 19, 7-[1,4]Diazepan-1-yl-3H-quinazolin-4-one]
< 10 µM | – | O=c1[nH]cnc2cc(NC3CCCNC3)ccc12 (stereo not shown) [Example 20, 7-(Piperidin-3-ylamino)-3H-quinazolin-4-one]
< 10 µM | – | N[C@H]1CC[C@H](Nc2ccc3c(=O)[nH]c(=O)[nH]c3c2)CC1 [Example 21, 7-(4-Amino-cyclohexylamino)-1H-quinazoline-2,4-dione]
< 10 µM | – | CN1CCCN(c2ccc3c(=O)[nH]cnc3c2)CC1 [Example 22, 7-(4-Methyl-[1,4]diazepan-1-yl)-3H-quinazolin-4-one]
< 50 µM | – | CN1CCN(C2CCN(c3ccc4c(=O)[nH]cnc4c3)CC2)CC1 [Example 23, 7-[4-(4-Methyl-piperazin-1-yl)-piperidin-1-yl]-3H-quinazolin-4-one]
< 50 µM | – | CN1CCN(c2ccc3c(=O)[nH]cnc3c2)CC1 [Example 26, 7-(4-Methyl-piperazin-1-yl)-3H-quinazolin-4-one]
< 10 µM | – | N[C@H]1CC[C@H](Oc2ccc3c(=O)[nH]cnc3c2)CC1 [Example 31, 7-(4-Amino-cyclohexyloxy)-3H-quinazolin-4-one]
< 10 µM | – | NC(c1ccc(Cl)cc1)C1CCN(c2ccc3c(=O)[nH]cnc3c2)CC1 (stereo not shown) [Example 36, 7-{4-[Amino-(4-chloro-phenyl)-methyl]-piperidin-1-yl}-3H-quinazolin-4-one]
